Measured values reported in the supplement of paper PMC9938120.

What was measured:
Assay in all cases: drug sensitivity score (DSS3, normalised partial AUC of % inhibition dose-response) (DSS (score)); higher = more sensitive (stronger inhibition of viability); extreme values may be limits of the assay
FMOC27 = patient-derived low-grade serous ovarian cancer cells; details: 72 h; library: FO5A; assay format: 2D, 384-well, CellTiter-Glo
In short: (§1)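 The drug sensitivity score is calculated as a partial area under the percent-inhibition dose-response curve, divided by the log of the upper asymptote; higher scores mean more sensitive. For this score, early-passage (under 10) patient-derived ovarian cancer cells were exposed on 384-well flat clear-bottom plates to compounds at five concentrations across a 10,000-fold range for 72 h at 37 °C, 5% CO2. Viability was read with CellTiter-Glo and processed in Breeze.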

FMOC11 = patient-derived high-grade serous ovarian cancer cells; details: 72 h; library: FO5A; assay format: 2D, 384-well, CellTiter-Glo
In short: as §1

FMOC14 = patient-derived high-grade serous ovarian cancer cells; details: 72 h; library: FO5A; assay format: 2D, 384-well, CellTiter-Glo
In short: as §1

FMOC25_1 = patient-derived low-grade serous ovarian cancer cells; details: 72 h; library: FO4B; assay format: 2D, 384-well, CellTiter-Glo
In short: as §1

FMOC28 = patient-derived low-grade serous ovarian cancer cells; details: 72 h; library: FO5A; assay format: 2D, 384-well, CellTiter-Glo
In short: as §1

FMOC09 = patient-derived high-grade serous ovarian cancer cells; details: 72 h; library: FO5A; assay format: 2D, 384-well, CellTiter-Glo
In short: as §1

FMOC02_2 = patient-derived low-grade serous ovarian cancer cells; details: 72 h; library: FO5A; assay format: 2D, 384-well, CellTiter-Glo
In short: as §1

FMOC24 = patient-derived high-grade serous ovarian cancer cells; details: 72 h; library: FO5A; assay format: 2D, 384-well, CellTiter-Glo
In short: as §1

FMOC25_2 = patient-derived low-grade serous ovarian cancer cells; details: 72 h; library: FO5A; assay format: 2D, 384-well, CellTiter-Glo
In short: as §1

FMOC03 = patient-derived mucinous ovarian cancer cells; details: 72 h; library: FO5A; assay format: 2D, 384-well, CellTiter-Glo
In short: as §1

FMOC02_1 = patient-derived low-grade serous ovarian cancer cells; details: 72 h; library: FO5A; assay format: 2D, 384-well, CellTiter-Glo
In short: as §1

FMOC17 = patient-derived low-grade serous ovarian cancer cells; details: 72 h; library: FO5A; assay format: 2D, 384-well, CellTiter-Glo
In short: as §1

FMOC22 = patient-derived mucinous ovarian cancer cells; details: 72 h; library: FO5A; assay format: 2D, 384-well, CellTiter-Glo
In short: as §1

FMOC04 = patient-derived high-grade serous ovarian cancer cells; details: 72 h; library: FO5A; assay format: 2D, 384-well, CellTiter-Glo
In short: as §1

FMOC02_3 = patient-derived low-grade serous ovarian cancer cells; details: 72 h; library: FO5A; assay format: 2D, 384-well, CellTiter-Glo
In short: as §1

FMOC06 = patient-derived mucinous ovarian cancer cells; details: 72 h; library: FO5A; assay format: 2D, 384-well, CellTiter-Glo
In short: as §1

| SMILES | drug sensitivity score (FMOC27) | drug sensitivity score (FMOC11) | drug sensitivity score (FMOC14) | drug sensitivity score (FMOC25_1) | drug sensitivity score (FMOC28) | drug sensitivity score (FMOC09) | drug sensitivity score (FMOC02_2) | drug sensitivity score (FMOC24) | drug sensitivity score (FMOC25_2) | drug sensitivity score (FMOC03) | drug sensitivity score (FMOC02_1) | drug sensitivity score (FMOC17) | drug sensitivity score (FMOC22) | drug sensitivity score (FMOC04) | drug sensitivity score (FMOC02_3) | drug sensitivity score (FMOC06) |
| --- | --- | --- | --- | --- | --- | --- | --- | --- | --- | --- | --- | --- | --- | --- | --- | --- |
| COc1cc([C@@H]2c3cc4c(cc3[C@@H](O[C@@H]3O[C@@H]5CO[C@@H](c6cccs6)O[C@H]5[C@H](O)[C@H]3O)[C@H]3COC(=O)[C@H]23)OCO4)cc(OC)c1O [Teniposide] | 0 | 0 | 0 | 6.4 | 0 | 0 | 0 | 2.75 | 0 | 0.5 | 0 | 0 | 2.5 | 0 | 0 | 0 |
| N#CC[C@H](C1CCCC1)n1cc(-c2ncnc3[nH]ccc23)cn1 [Ruxolitinib] | 0 | 0 | 0 | 0 | 0 | 0 | 0.3 | 1.6 | 0 | 0 | 0.5 | 0 | 0 | 0 | 0 | 0 |
| CNc1nc(Nc2cn(C(C)(C)C#N)nc2C)ncc1C(F)(F)F [GNE-0877] | 0 | 0 | 0 | 0 | 0 | 0 | 0 | 0 | 0 | 0 | 0 | 0 | 0 | 0 | 0 | 0 |
| CC(C)N(CCCNC(=O)Nc1ccc(C(C)(C)C)cc1)C[C@H]1O[C@@H](n2cc(Br)c3c(N)ncnc32)[C@H](O)[C@@H]1O [SGC0946] | 1.8 | 0.6 | 0 | 0 | 3.3 | 0 | 2.8 | 3.95 | 2.5 | 0.1 | 1.2 | 2 | 0.1 | 0.95 | 0.9 | 1.4 |
| CC(C)N(C[C@H]1O[C@@H](n2cnc3c(N)ncnc32)[C@H](O)[C@@H]1O)[C@H]1C[C@@H](CCc2nc3cc(C(C)(C)C)ccc3[nH]2)C1 [Pinometostat] | 0 | 0 | 0 | 0 | 2.1 | 0 | 0 | 0 | 0.2 | 0 | 0 | 0 | 0 | 0 | 0 | 0 |
| NC(=O)NO [Hydroxyurea] | 1.6 | 2.9 | 0 | 0.5 | 0.9 | 0.9 | 1.3 | 1.05 | 3.9 | 0.7 | 5.2 | 1.1 | 0.7 | 0.8 | 4.8 | 1.9 |
| CNC(=O)c1cc(Oc2ccc(NC(=O)Nc3ccc(Cl)c(C(F)(F)F)c3)cc2)ccn1 [Sorafenib] | 0 | 0 | 0 | 0 | 0 | 0 | 0 | 0 | 0 | 0 | 0 | 0.5 | 0 | 0 | 0 | 0 |
| CO[C@H]1C[C@@H]2CC[C@@H](C)[C@@](O)(O2)C(=O)C(=O)N2CCCC[C@H]2C(=O)O[C@H]([C@H](C)C[C@@H]2CC[C@@H](O)[C@H](OC)C2)CC(=O)[C@H](C)/C=C(\C)[C@@H](O)[C@@H](OC)C(=O)[C@H](C)C[C@H](C)/C=C/C=C/C=C/1C [Sirolimus] | 3.1 | 2.1 | 1 | 8.9 | 3.3 | 1.4 | 7.3 | 6.1 | 6.3 | 2 | 6.3 | 4.7 | 4 | 1.1 | 10 | 2.5 |
| CC(C)(C#N)c1cc(Cn2cncn2)cc(C(C)(C)C#N)c1 [Anastrozole] | 0 | 0 | 0 | 0 | 0 | 0 | 0 | 0 | 0 | 0 | 0 | 0 | 0 | 0 | 0 | 0 |
| COc1cc2c(Oc3ccc(NC(=O)C4(C(=O)Nc5ccc(F)cc5)CC4)cc3F)ccnc2cc1OCCCN1CCOCC1 [Foretinib] | 2.2 | 0.8 | 0.6 | 0.6 | 0 | 1.1 | 1.9 | 1.35 | 2.4 | 0 | 2.6 | 1.7 | 0.5 | 1.1 | 3.2 | 3.1 |
| NC(=O)c1cccc2cn(-c3ccc([C@@H]4CCCNC4)cc3)nc12 [Niraparib] | 3.2 | 1.4 | 0 | 1.5 | 5.4 | 1.6 | 2.6 | 5.55 | 4.8 | 0 | 4.2 | 0 | 1.9 | 0.55 | 6.6 | 1.5 |
| Cc1ccc(-n2nc(C(C)(C)C)cc2NC(=O)Nc2ccc(OCCN3CCOCC3)c3ccccc23)cc1 [Doramapimod] | 0.1 | 2.4 | 0 | 0.8 | 7.1 | 0.8 | 0 | 1.85 | 0.1 | 0 | 0.1 | 0.4 | 0.3 | 0 | 0 | 0 |
| O=C(O)CCCCC(CCSCc1ccccc1)SCc1ccccc1 (stereo not drawn) [CPI-613] | 0 | 0 | 0 | 0 | 2.8 | 0 | 0 | 0 | 0 | 0 | 0 | 2.5 | 0 | 0 | 0 | 0 |
| NC1(c2ccc(-c3nc4ccn5c(=O)[nH]nc5c4cc3-c3ccccc3)cc2)CCC1 [MK-2206] | 1.5 | 0.9 | 2 | 4.9 | 5.5 | 2.7 | 7.5 | 1.5 | 3 | 2.5 | 4.9 | 4.2 | 0.8 | 1.75 | 6.9 | 4.8 |
| C[C@@H](Oc1ccc2[nH]nc(/C=C/c3cnn(CCO)c3)c2c1)c1c(Cl)cncc1Cl | 2.4 | 2.4 | 0 | 1 | 0.6 | 3.3 | 4.2 | 1.7 | 6.8 | 3.1 | 6.3 | 4.1 | 3.5 | 1.8 | 3.9 | 6 |
| CCn1c(-c2nonc2N)nc2cnc(Oc3cccc(NC(=O)c4ccc(OCCN5CCOCC5)cc4)c3)cc21 | 2.9 | 3.7 | 2.2 | 0 | 0.4 | 2.3 | 1.6 | 2.3 | 3.8 | 0.4 | 4.8 | 2 | 1.7 | 0.6 | 6.3 | 1.3 |
| N#Cc1ccc(COC[C@H]2O[C@@H](n3c(NCc4ccc(Cl)c(Cl)c4)nc4c(N)ncnc43)[C@H](O)[C@@H]2O)cc1 | 1.6 | 3.2 | 2.5 | 6.6 | 0 | 2 | 2.6 | 2.1 | 0 | 6 | 7.6 | 5.6 | 4.2 | 0.95 | 6.6 | 5.5 |
| C[C@@H](Nc1cc(F)cc(F)c1)c1cc(C(=O)N(C)C)cc2c(=O)cc(N3CCOCC3)oc12 [AZD-8186] | 5.3 | 1.8 | 0 | 1.5 | 1.6 | 2.4 | 2.6 | 0 | 2.1 | 1.6 | 1.5 | 4.9 | 0 | 0.75 | 3.3 | 3 |
| C=C1C[C@@H]2[C@H](CC[C@]3(C)C(=O)CC[C@@H]23)[C@@]2(C)C=CC(=O)C=C12 [Exemestane] | 0 | 0 | 0 | 0 | 0 | 0 | 0 | 0.35 | 0 | 0 | 0 | 0 | 0 | 0 | 0 | 0.4 |
| CNC(=O)[C@@H](NC(=O)[C@H](CC(C)C)[C@H](O)C(=O)NO)C(C)(C)C [Marimastat] | 0 | 0.4 | 0 | 0.6 | 0 | 0.1 | 0 | 0 | 3.6 | 0 | 0.9 | 0 | 0 | 0 | 0 | 0 |
| COc1cc2c(NC3CCN(C(C)C)CC3)nc(C3CCCCC3)nc2cc1OCCCN1CCCC1 [UNC0638] | 2.1 | 3.5 | 3.1 | 0.2 | 0 | 1.9 | 0.5 | 7.6 | 6.5 | 0 | 5.5 | 4.7 | 2 | 4.3 | 5.4 | 1.7 |
| Cc1cccc(-c2[nH]c(CNc3ccccc3F)nc2-c2ccc3ncnn3c2)n1 [TEW-7197] | 0.2 | 0.4 | 0 | 0 | 0 | 0 | 1.8 | 0.85 | 0 | 0 | 0 | 0 | 0 | 0 | 0.1 | 3.9 |
| CCc1cc2c(cc1N1CCC(N3CCOCC3)CC1)C(C)(C)c1[nH]c3cc(C#N)ccc3c1C2=O [Alectinib] | 1.2 | 0.7 | 0 | 0.1 | 1.7 | 0 | 1.5 | 0.3 | 0 | 0.3 | 1.7 | 0.8 | 0 | 0 | 0.6 | 0.2 |
